Reference: paper PMC7782499, “Progerinin, an optimized progerin-lamin A binding inhibitor, ameliorates premature senescence phenotypes of Hutchinson-Gilford progeria syndrome” (Communications Biology, 2021)

Tests used:
[1] = target: T1, CYP1A2 (Homo sapiens, UniProt P05177); test: CYP inhibition, CYP1A2; assay type: in vitro ADME
T1 sequence (P05177 1-516): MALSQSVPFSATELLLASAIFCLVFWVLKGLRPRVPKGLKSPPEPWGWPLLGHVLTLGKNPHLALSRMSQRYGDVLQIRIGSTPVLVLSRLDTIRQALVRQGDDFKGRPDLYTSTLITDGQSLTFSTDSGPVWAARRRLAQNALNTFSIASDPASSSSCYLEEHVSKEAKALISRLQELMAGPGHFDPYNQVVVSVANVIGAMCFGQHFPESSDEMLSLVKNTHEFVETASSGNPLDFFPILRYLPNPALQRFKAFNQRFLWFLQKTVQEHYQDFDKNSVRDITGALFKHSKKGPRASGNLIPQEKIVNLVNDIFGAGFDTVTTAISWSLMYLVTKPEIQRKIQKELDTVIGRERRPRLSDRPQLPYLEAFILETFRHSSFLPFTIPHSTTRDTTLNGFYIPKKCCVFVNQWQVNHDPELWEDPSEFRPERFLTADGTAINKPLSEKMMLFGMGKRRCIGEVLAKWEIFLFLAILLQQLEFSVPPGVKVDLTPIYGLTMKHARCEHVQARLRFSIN
Method: At pre-set time-points, blood concentration of JH4 was determined by LC-MS/MS analysis[22],[23]. Other chemicals were also tested using similar protocol. In vitro ADME studies (plasma protein binding, CYP inhibition, microsomal stability, plasma stability, and hERG inhibition) were performed by New Drug Development Center (Daegu, Korea) using standard protocols[24],[25].

[2] = system: Sprague-Dawley rats; test: Single oral gavage dose toxicity study in SD rats; assay type: in vivo; details: for Mortality: Day 1-7; for External Gross Observation: No gross findings (animals of 3) / Internal Gross Observation: No gross findings (animals of 3): Sprague-Dawley, 7 day
Excerpt: The protocol and procedures involving the care and use of animals in this study was reviewed and approved by IACUC of QuBEST BIO prior to conduct (Approval no.: QBSIACUC-A18122). During the study, the care and use of animals will be conducted in accordance with all applicable guidelines of Animal Welfare Act. Eleven specific pathogen-gree Sprague-Dawley rats (~6 weeks old) were obtained from SAMTAKO Ltd. (Osan, Korea) and nine rats were used for the study. […] Food was withheld for a further 3–4 h after dosing. Each dose was based on the most recent body weight of each animal and the dose volume was […]. The dosing day was designated as Day 1. All animals were observed twice daily for mortality and moribundity during the study. A clinical observation was performed for all animals at the time of dosing and approximately 1, 2, and 4 h post-dose on dosing day, and once daily during 7-day observation period. Observations were included, but are not limited to, changes in the skin, fur, eyes and mucous membrane; respiratory, circulatory, autonomic and central nervous system function; somatomotor activity and behavior patterns. Individual body weights were measured for all animals on the day of animal receipt, randomization, prior to dosing start (Day 1) and study period (Days 4 and 7). Those animals survived on completion of the 7-day observation period were weighed body weight prior to necropsy and CO2 inhalation anesthesia and exsanguinated from the abdominal aorta. In order to avoid autolytic change, a complete gross pathology examination of the carcass was performed as soon as possible after euthanasia of all animals. Necropsy was consisted of an external examination, including identification of all clinically recorded lesions, as well as a detailed internal examination. Toxicity studies were performed by QuBEST BIO Co., Ltd (Yongin, Korea).
The objective of this study was to investigate the potential acute toxicity or approximate lethal dose of SLC-D011 following a single oral gavage administration to the SD rats.
The study group is detailed in Text Table 1.
Text Table 1. Study Group
The following parameters were evaluated: mortality (twice daily), clinical signs (1, 2, and 4 ho urs post-dose on dosing day, and once daily during 7-day period), body weights (on Days 1, 4 and 7), and […]
Mortality and Clinical Observation […]
The oral gavage route was selected since it is the intended route of administration in humans. […]
The study groups and dose level were assigned as below after consultation with the Sponsor. […]
After overnight fasting (approximately 16 hours, food but not water should be withheld overnight), test article formulations were dosed using a plastic disposable feeding needle attached to a plastic disposable syringe. Food was withheld for a further 3~4 hours after dosing. Each dose was based on the most recent body weight of each animal and the dose volume was 10 mL/kg. The dosing day was designated as study Day 1.
All animals were observed twice daily [once (am) on weekend and holiday] for mortality and moribundity during the study.
A clinical observation was performed for all animals at the time of dosing and approximately 1, 2 and 4 hours post-dose on dosing day, and once daily during 7-day observation period.

[3] = female, rat, in vivo, 500 mg/kg

CC1(C)Oc2cc3oc(=O)ccc3cc2C[C@@H]1OC/C=C/c1ccccc1 [SLC-D011]
CYP inhibition [1]: 81.6
Mortality ([2]; female rats, 500 mg/kg): 0/3
Mortality ([2]; female rats, 2,000 mg/kg): 0/3
External Gross Observation: No gross findings (animals of 3) [2, 3]: 3
Internal Gross Observation: No gross findings (animals of 3) [2, 3]: 3
Mortality ([2]; male rats, 500 mg/kg): 0/3
Mortality ([2]; male rats, 2,000 mg/kg): 0/3
External Gross Observation: No gross findings (animals of 3) ([2]; male, rat, in vivo, 500 mg/kg): 3
Internal Gross Observation: No gross findings (animals of 3) ([2]; male, rat, in vivo, 500 mg/kg): 3
Clinical Observation ([2]; rat, in vivo, 500 mg/kg): Appears Normal
Tolerability ([2]; single oral gavage at 500 and 2,000 mg/kg): well tolerated
Approximate lethal dose (ALD) ([2]; single oral gavage, both sexes): > 2,000 mg/kg
